Source: patent US20120035247A1, “RNA Interference Mediated Inhibition of Signal Transducer and Activator of Transcription 6 (STAT6) Gene Expression Using Short Interfering Nucleic Acid (siNA)” (Merck Sharp & Dohme Corp., priority 2009, published 2012)
[invAb] = inverted abasic unit; d = 2'-deoxy (DNA); m = 2'-O-methyl; r = 2'-OH (RNA); f = 2'-fluoro

Experiments:
STAT6 mRNA [1] = assay: STAT6 siNA screen in mouse NIH 3T3 cells, STAT6 mRNA by quantitative RT-PCR (Taqman); type: cell-based; details: mouse NIH3T3 cells, 10 nM siNA, 24 hrs, normalized to GAPDH and non-targeting control, n = 2
Experimental: NIH 3T3 (mouse; ATCC cat# CRL-1658): Cells were cultured at 37° C. in the presence of 5% CO2 and grown in Dulbecco's modified Eagle's medium (DMEM) with 4 mM L-glutamine adjusted to contain 1.5 g/L sodium bicarbonate and 4.5 g/L glucose and supplemented with fetal bovine serum at a final concentration of 10%, 100 μg/mL of streptomycin, and 100 U/mL penicillin.
(§1) Cells were plated in all wells of a tissue-culture treated, 96-well plate at a final count of 5000 cells/well in […], of the appropriate culture media. The cells were cultured for 24 hours after plating at 37° C. in the presence of 5% CO2.
(§2) After 24 hours, complexes containing siNA and RNAiMax were created as follows: A solution of RNAiMax diluted 33-fold in OPTI-MEM was prepared. In parallel, solutions of the siNAs for testing were prepared to a final concentration of 120 nM in OPTI-MEM. After incubation of RNAiMax/OPTI-MEM solution at room temperature for 5 min, an equal volume of the siNA solution and the RNAiMax solution were added together for each of the siNAs.
(§3) This solution was incubated at room temperature for 20 minutes. After incubation, 20 uL of the solution was added to each of the relevant wells. The final concentration of siNA in each well was 10 nM and the final volume of RNAiMax in each well was 0.3u1.
(§4) The time of incubation with the RNAiMax-siNA complexes was 24 hours and there was no change in media between transfection and harvesting, unless otherwise indicated.
(§5) RNA was extracted from a 96-well plate using the TaqMan® Gene Expression Cells-to-CT™ Kit (Cat#4399002) with a modified protocol. Briefly, a 60 uL (1 plate) or 110 uL (2 plates) of the Lysis Solution with DNase I was dispensed into each well of the Lysis Buffer Plate (twin.tec full skirt plate). The lysis buffer and stop plates were stored at 4° C. until the cells were washed.
(§6) The plate was spun at 1100 rpm for 5 minutes. The culture medium was aspirated and discarded from the wells of the culture plate. The lysis was performed automatically using a BioMek FX instrument and method. After the Biomek method was completed, the lysis plate was incubated for 2 min. at room temperature. The lysis plate can be stored for 2 hours at 4° C., or at −20° C. or −80° C. for two months.
(§7) Each well of the reverse transcription plate required 10 uL of 2× reverse transcriptase Buffer, luL of 20× reverse transcription enzyme and 2 uL of nuclease-free water. The reverse transcription master mix was prepared by mixing 2× reverse transcription buffer, 20× reverse transcription enzyme mix, and nuclease-free water. 13 uL of the reverse transcription master mix was dispensed into each well of the reverse transcription plate (semi-skirted). A separate reverse transcription plate was prepared for each cell plate. The plate was loaded onto a Biomek NX or Biomek FX Dual-96 and the Biomek method was run. The program is programmed to automatically added 7 uL of lysate from the cell lysis procedure described above into each well of the reverse transcription plate. The plate is sealed and spun on a centrifuge (1000 rpm for 30 seconds) to settle the contents to the bottom of the reverse transcription plate. The plate is placed in a thermocycler at 37° C. for 60 min, 95° C. for 5 min, and 4° C. until the plate is removed from the thermocycler. Upon removal, if not used immediately, the plate was frozen at −20° C.
(§8) A series of probes and primers were used to detect the various mRNA transcripts of the genes of 13-Actin (human cell line only), and of STATE and GAPDH in mouse and human cell lines. All Taqman probes and primers for the experiments here-in described were supplied as pre-validated sets by Applied Biosystems, Inc. (see Table 2).
The assays were performed on an ABI 7900 instrument, according to the manufacturer's instructions. A TaqMan Gene Expression Master Mix (provided in the Cells-to-CTT™, Applied Biosystems, Cat #4399002) was used. […]

STAT6 mRNA [2] = assay: STAT6 siNA screen and dose response in human A549 cells, STAT6 mRNA by quantitative RT-PCR (Taqman); type: cell-based; details: human A549 cells, 10 nM siNA, 24 hrs, normalized to GAPDH and non-targeting control, mean ± S.D., n = 3
Experimental: A549 (human; ATCC cat# CCL-185): Cells were cultured at 37° C. in the presence of 5% CO2 and grown in Ham's F12K medium with 2 mM L-glutamine adjusted to contain 1.5 g/L sodium bicarbonate and supplemented with fetal bovine serum at a final concentration of 10%, 100 μg/mL of streptomycin, and 100 U/mL penicillin.
as §1, §2, §3, §4, §5, §6, §7, §8
The assays were performed on an ABI 7900 instrument, according to the manufacturer's instructions. A TaqMan Gene Expression Master Mix (provided in the Cells-to-CTT™, Applied Biosystems, Cat #4399002) was used. The PCR reactions were carried out at 50° C. for 2 min, 95° C. for 20 min followed by 40 cycles at 95° C. for 15 secs and 60° C. for 1 min. […]

Substance | % KD STAT6 (STAT6 mRNA [1]) [%] | % KD STAT6 (STAT6 mRNA [2]) [%]
30002-DC: STAT6 siNA duplex; sense SEQ ID NO: 68, antisense SEQ ID NO: 69; target GAUAGAAACUCCUGCUAAU, site 766 (sense GAUAGAAACUCCUGCUAAUTT; antisense AUUAGCAGGAGUUUCUAUCUU; sense: DNA at AGT, 2'-fluoro at CU, [invAb] at 5' end, 3' end, backbone not given here; antisense: sugars from the 5' end rrrmmfmmmmmfffffmffmm, backbone not given here) [STAT6 siNA duplex; target GAUAGAAACUCCUGCUAAU, site 766] | −22.3 ± 3.5 | 55.9 ± 9.4
30003-DC: STAT6 siNA duplex; sense SEQ ID NO: 70, antisense SEQ ID NO: 71; target CGUGGAAAGGGACCAACCA, site 2218 (sense CGUGGAAAGGGACCAACCATT; antisense UGGUUGGUCCCUUUCCACGUU; sense: DNA at AGT, 2'-fluoro at CU, [invAb] at 5' end, 3' end, backbone not given here; antisense: sugars from the 5' end rrrffmmfffffffffmfmmm, backbone not given here) [STAT6 siNA duplex; target CGU…, site 2218] | −22.6 ± 6.6 | −11.1 ± 23.2
30004-DC: STAT6 siNA duplex; sense SEQ ID NO: 72, antisense SEQ ID NO: 73; target GCCUUCUUAUGACCUUGGA, site 2272 (sense GCCUUCUUAUGACCUUGGATT; antisense UCCAAGGUCAUAAGAAGGCUU; sense: DNA at AGT, 2'-fluoro at CU, [invAb] at 5' end, 3' end, backbone not given here; antisense: sugars from the 5' end rrrmmmmffmfmmmmmmmfmm, backbone not given here) [STAT6 siNA duplex; target GCCUUCUUAUGACCUUGGA, site 2272] | −12.8 ± 9.1 | 3.1 ± 19.6
30006-DC: STAT6 siNA duplex; sense SEQ ID NO: 76, antisense SEQ ID NO: 77; target CCACUAUCCUGUGGGACAA, site 1542 (sense CCACUAUCCUGUGGGACAATT; antisense UUGUCCCACAGGAUAGUGGUU; sense: DNA at AGT, 2'-fluoro at CU, [invAb] at 5' end, 3' end, backbone not given here; antisense: sugars from the 5' end rrrffffmfmmmmfmmfmmmm, backbone not given here) [STAT6 siNA duplex; target CCACUAUCCUGUGGGACAA, site 1542] | −27.4 ± 8.5 | 72.9 ± 1.7
30007-DC: STAT6 siNA duplex; sense SEQ ID NO: 78, antisense SEQ ID NO: 79; target GGAAGUUCAGGCUCUGAGA, site 3048 (sense GGAAGUUCAGGCUCUGAGATT; antisense UCUCAGAGCCUGAACUUCCUU; sense: sugars from the 5' end d5 f3 d3 f4 d6, [invAb] at 5' end, 3' end, backbone not given here; antisense: sugars from the 5' end rrrfmmmmfffmmmfffffmm, backbone not given here) [STAT6 siNA duplex; target GGAAGUUCAGGCUCUGAGA, site 3048] | 8.1 ± 0.8 | 59.8 ± 8.6
30009-DC: STAT6 siNA duplex; sense SEQ ID NO: 82, antisense SEQ ID NO: 83; target GCUUUGCUCAGAUGUGACU, site 2538 (sense GCUUUGCUCAGAUGUGACUTT; antisense AGUCACAUCUGAGCAAAGCUU; sense: DNA at AGT, 2'-fluoro at CU, [invAb] at 5' end, 3' end, backbone not given here; antisense: sugars from the 5' end rrrfmfmfffmmmfmmmmfmm, backbone not given here) [STAT6 siNA duplex; target GCUUUGCUCAGAUGUGACU, site 2538] | 72.7 ± 5.4 | 63.5 ± 4.6
30010-DC: STAT6 siNA duplex; sense SEQ ID NO: 84, antisense SEQ ID NO: 85; target GGGACAAUGCCUUCUCUGA, site 1568 (sense GGGACAAUGCCUUCUCUGATT; antisense UCAGAGAAGGCAUUGUCCCUU; sense: sugars from the 5' end dddrfddfdffffffffdddd, [invAb] at 5' end, 3' end, backbone not given here; antisense: sugars from the 5' end rrrmmmmmmmfmffmffffmm, backbone not given here) [STAT6 siNA duplex; target GGGACAAUGCCUUCUCUGA, site 1568] | −26.2 ± 0.2 | 6 ± 23.6
30011-DC: STAT6 siNA duplex; sense SEQ ID NO: 86, antisense SEQ ID NO: 87; target CCGAGAAUCUCUGCAGCAA, site 726 (sense CCGAGAAUCUCUGCAGCAATT; antisense UUGCUGCAGAGAUUCUCGGUU; sense: DNA at AGT, 2'-fluoro at CU, [invAb] at 5' end, 3' end, backbone not given here; antisense: sugars from the 5' end rrrffmfmmmmmfffffmmmm, backbone not given here) [STAT6 siNA duplex; target CCGAGAAUCUCUGCAGCAA, site 726] | 53.4 ± 0.2 | 34.9 ± 11.5
30012-DC: STAT6 siNA duplex; sense SEQ ID NO: 88, antisense SEQ ID NO: 89; target CAUCGUGCAUGGUAACCAA, site 1521 (sense CAUCGUGCAUGGUAACCAATT; antisense UUGGUUACCAUGCACGAUGUU; sense: DNA at AGT, 2'-fluoro at CU, [invAb] at 5' end, 3' end, backbone not given here; antisense: sugars from the 5' end rrrmffmffmfmfmfmmfmmm, backbone not given here) [STAT6 siNA duplex; target CAUCGUGCAUGGUAACCAA, site 1521] | 18 ± 3.2 | −13.7 ± 15.8
30013-DC: STAT6 siNA duplex; sense SEQ ID NO: 90, antisense SEQ ID NO: 91; target CAUGGUGCCACCUUAUGAU, site 2280 (sense CAUGGUGCCACCUUAUGAUTT; antisense AUCAUAAGGUGGCACCAUGUU; sense: DNA at AGT, 2'-fluoro at CU, [invAb] at 5' end, 3' end, backbone not given here; antisense: sugars from the 5' end rrrmfmmmmfmmfmffmfmmm, backbone not given here) [STAT6 siNA duplex; target CAUGGUGCCACCUUAUGAU, site 2280] | 46.1 ± 2.2 | 19.6 ± 13.6
